Results reported in ChEMBL document CHEMBL4257451, “Synergism of fused bicyclic 2-aminothiazolyl compounds with polymyxin B against Klebsiella pneumoniae” (Medchemcomm, 2017).
Active and inactive are the calls of the source. The calls are words filed in the database; no cut-off is given here.

What was measured:
[1] = test system: Escherichia coli; assay: Growth inhibition of Escherichia coli isolate 2945 by broth microdilution method; format: organism-based
[2] = test system: Escherichia coli; assay: Synergistic antibacterial activity against Escherichia coli isolate 2945 assessed as polymixin B MIC at 4 ug/ml by broth microdilution method (reference value: 0.125 ug/ml); format: functional
[3] = test system: Acinetobacter baumannii; assay: Synergistic antibacterial activity against Acinetobacter baumannii isolate 3 assessed as polymixin B MIC at 4 ug/ml by broth microdilution method (reference value: 0.5 ug/ml); format: functional
[4] = test system: Acinetobacter baumannii; assay: Growth inhibition of Acinetobacter baumannii isolate 3 by broth microdilution method; format: organism-based
[5] = test system: Acinetobacter baumannii; assay: Synergistic antibacterial activity against Acinetobacter baumannii isolate 1 in presence of polymixin B by broth microdilution method; format: functional
[6] = test system: Klebsiella pneumoniae; assay: Bactericidal activity against Klebsiella pneumoniae SIPI-KPN-1712 at 4 ug/ml up to 24 hrs by time kill assay; format: ADME, organism-based
[7] = test system: Escherichia coli; assay: Synergistic antibacterial activity against Escherichia coli ATCC 25922 assessed as polymixin B MIC at 4 ug/ml by broth microdilution method (reference value: 0.25 ug/ml); format: functional
[8] = test system: Klebsiella pneumoniae; assay: Synergistic antibacterial activity against Klebsiella pneumoniae SIPI-KPN-1712 assessed as fold reduction in polymixin B MIC at 4 ug/ml by broth microdilution method relative to polymixin B alone; format: functional
[9] = test system: Klebsiella pneumoniae; assay: Synergistic antibacterial activity against Klebsiella pneumoniae SIPI-KPN-1712 assessed as fold reduction in polymixin B MIC at 2 ug/ml by broth microdilution method relative to polymixin B alone; format: functional
[10] = test system: Escherichia coli; assay: Synergistic antibacterial activity against Escherichia coli isolate 2945 in presence of polymixin B by broth microdilution method (reference value: 0.125 ug/ml); format: functional
[11] = test system: Klebsiella pneumoniae; assay: Synergistic antibacterial activity against Klebsiella pneumoniae KPN-2967 assessed as polymixin B MIC at 4 ug/ml by broth microdilution method (reference value: 0.5 ug/ml); format: functional
[12] = test system: Klebsiella pneumoniae; assay: Synergistic antibacterial activity against Klebsiella pneumoniae SIPI-KPN-1712 assessed as fold reduction in polymixin B MIC at 16 ug/ml by broth microdilution method relative to polymixin B alone; format: functional
[13] = test system: Acinetobacter baumannii; assay: Synergistic antibacterial activity against Acinetobacter baumannii isolate 1 assessed as polymixin B MIC at 4 ug/ml by broth microdilution method (reference value: 2 ug/ml); format: functional
[14] = test system: Klebsiella pneumoniae; assay: Synergistic antibacterial activity against Klebsiella pneumoniae SIPI-KPN-1712 assessed as fold reduction in polymixin B MIC at 1 ug/ml by broth microdilution method relative to polymixin B alone; format: functional
[15] = test system: Pseudomonas aeruginosa; assay: Synergistic antibacterial activity against Pseudomonas aeruginosa isolate 1292 assessed as polymixin B MIC at 4 ug/ml by broth microdilution method (reference value: 2 ug/ml); format: functional
[16] = test system: Klebsiella pneumoniae; assay: Growth inhibition of Klebsiella pneumoniae KPN-2967 by broth microdilution method; format: organism-based; conditions: in vivo
[17] = test system: Klebsiella pneumoniae; assay: Synergistic antibacterial activity against Klebsiella pneumoniae KPN-2967 in presence of polymixin B by broth microdilution method; format: functional
[18] = test system: Pseudomonas aeruginosa; assay: Growth inhibition of Pseudomonas aeruginosa isolate 1292 by broth microdilution method; format: organism-based; conditions: in vivo
[19] = test system: Acinetobacter baumannii; assay: Synergistic antibacterial activity against Acinetobacter baumannii isolate 2 in presence of polymixin B by broth microdilution method; format: functional
[20] = test system: Klebsiella pneumoniae; assay: Growth inhibition of Klebsiella pneumoniae KPN-2677 by broth microdilution method; format: organism-based
[21] = test system: Acinetobacter baumannii; assay: Synergistic antibacterial activity against Acinetobacter baumannii ATCC 19606 assessed as polymixin B MIC at 4 ug/ml by broth microdilution method (reference value: 0.5 ug/ml); format: functional; conditions: ATCC 19606 = CIP 70.34 = JCM 6841
[22] = test system: Klebsiella pneumoniae; assay: Synergistic bactericidal activity against Klebsiella pneumoniae SIPI-KPN-1712 at 4 ug/ml in presence of 0.5 to 1 ug/ml polymixin B up to 24 hrs by time kill assay; format: functional, organism-based
[23] = test system: Klebsiella pneumoniae; assay: Synergistic antibacterial activity against Klebsiella pneumoniae KPN-2677 assessed as fold reduction in polymixin B MIC by broth microdilution method relative to polymixin B alone; format: functional
[24] = test system: Pseudomonas aeruginosa; assay: Synergistic antibacterial activity against Pseudomonas aeruginosa isolate 1399 in presence of polymixin B by broth microdilution method (reference value: 1 ug/ml); format: functional
[25] = test system: Pseudomonas aeruginosa; assay: Synergistic antibacterial activity against Pseudomonas aeruginosa ATCC 27853 assessed as polymixin B MIC at 4 ug/ml by broth microdilution method (reference value: 1 ug/ml); format: functional
[26] = test system: Klebsiella pneumoniae; assay: Synergistic antibacterial activity against Klebsiella pneumoniae KPN-2967 assessed as fold reduction in polymixin B MIC by broth microdilution method relative to polymixin B alone; format: functional
[27] = test system: Klebsiella pneumoniae; assay: Synergistic antibacterial activity against Klebsiella pneumoniae SIPI-KPN-1712 assessed as fold reduction in polymixin B MIC at 8 ug/ml by broth microdilution method relative to polymixin B alone; format: functional
[28] = test system: Escherichia coli; assay: Growth inhibition of Escherichia coli ATCC 25922 by broth microdilution method; format: organism-based
[29] = test system: Klebsiella pneumoniae; assay: Synergistic antibacterial activity against Klebsiella pneumoniae KPN-2677 assessed as polymixin B MIC at 4 ug/ml by broth microdilution method (reference value: 0.5 ug/ml); format: functional
[30] = test system: Acinetobacter baumannii; assay: Synergistic antibacterial activity against Acinetobacter baumannii isolate 2 assessed as polymixin B MIC at 4 ug/ml by broth microdilution method (reference value: 1 ug/ml); format: functional
[31] = test system: Acinetobacter baumannii; assay: Synergistic antibacterial activity against Acinetobacter baumannii isolate 3 in presence of polymixin B by broth microdilution method; format: functional
[32] = test system: Acinetobacter baumannii; assay: Growth inhibition of Acinetobacter baumannii ATCC 19606 by broth microdilution method; format: organism-based, ATCC 19606 = CIP 70.34 = JCM 6841
[33] = test system: Klebsiella pneumoniae; assay: Synergistic antibacterial activity against Klebsiella pneumoniae KPN-2677 in presence of polymixin B by broth microdilution method; format: functional
[34] = test system: Escherichia coli; assay: Synergistic antibacterial activity against Escherichia coli isolate 2944 in presence of polymixin B by broth microdilution method (reference value: 0.125 ug/ml); format: functional
[35] = test system: Acinetobacter baumannii; assay: Growth inhibition of Acinetobacter baumannii isolate 4 by broth microdilution method; format: organism-based
[36] = test system: Pseudomonas aeruginosa; assay: Synergistic antibacterial activity against Pseudomonas aeruginosa isolate 1292 in presence of polymixin B by broth microdilution method (reference value: 2 ug/ml); format: functional
[37] = test system: Pseudomonas aeruginosa; assay: Synergistic antibacterial activity against Pseudomonas aeruginosa isolate 1399 assessed as polymixin B MIC at 4 ug/ml by broth microdilution method (reference value: 1 ug/ml); format: functional
[38] = test system: Acinetobacter baumannii; assay: Growth inhibition of Acinetobacter baumannii isolate 2 by broth microdilution method; format: organism-based
[39] = test system: Escherichia coli; assay: Growth inhibition of Escherichia coli isolate 2944 by broth microdilution method; format: organism-based
[40] = test system: Escherichia coli; assay: Synergistic antibacterial activity against Escherichia coli isolate 2944 assessed as polymixin B MIC at 4 ug/ml by broth microdilution method (reference value: 0.125 ug/ml); format: functional
[41] = test system: Acinetobacter baumannii; assay: Synergistic antibacterial activity against Acinetobacter baumannii isolate 4 assessed as polymixin B MIC at 4 ug/ml by broth microdilution method (reference value: 0.5 ug/ml); format: functional
[42] = test system: Klebsiella pneumoniae; assay: Synergistic bactericidal activity against Klebsiella pneumoniae SIPI-KPN-1712 at 4 ug/ml in presence of 2 to 4 ug/ml polymixin B up to 24 hrs by time kill assay; format: functional, organism-based
[43] = test system: Acinetobacter baumannii; assay: Growth inhibition of Acinetobacter baumannii isolate 1 by broth microdilution method; format: organism-based
[44] = test system: Acinetobacter baumannii; assay: Synergistic antibacterial activity against Acinetobacter baumannii ATCC 19606 in presence of polymixin B by broth microdilution method; format: functional, ATCC 19606 = CIP 70.34 = JCM 6841
[45] = test system: Pseudomonas aeruginosa; assay: Growth inhibition of Pseudomonas aeruginosa ATCC 27853 by broth microdilution method; format: organism-based
[46] = test system: Escherichia coli; assay: Synergistic antibacterial activity against Escherichia coli ATCC 25922 in presence of polymixin B by broth microdilution method; format: functional
[47] = test system: Klebsiella pneumoniae; assay: Synergistic antibacterial activity against Klebsiella pneumoniae SIPI-KPN-1712 assessed as polymixin B MIC at 4 ug/ml by broth microdilution method (reference value: 32 ug/ml); format: functional
[48] = test system: Acinetobacter baumannii; assay: Synergistic antibacterial activity against Acinetobacter baumannii isolate 4 in presence of polymixin B by broth microdilution method; format: functional
[49] = test system: Pseudomonas aeruginosa; assay: Growth inhibition of Pseudomonas aeruginosa isolate 1399 by broth microdilution method; format: organism-based; conditions: in vivo
[50] = test system: Klebsiella pneumoniae; assay: Synergistic antibacterial activity against Klebsiella pneumoniae SIPI-KPN-1712 assessed as fractional Inhibitory concentration index in presence of polymixin B at 2 ug/ml by broth microdilution method; format: functional
[51] = test system: Pseudomonas aeruginosa; assay: Synergistic antibacterial activity against Pseudomonas aeruginosa ATCC 27853 in presence of polymixin B by broth microdilution method (reference value: 1 ug/ml); format: functional
[52] = test system: Klebsiella pneumoniae; assay: Growth inhibition of Klebsiella pneumoniae SIPI-KPN-1712 by broth microdilution method; format: organism-based; conditions: in vitro

MIC [2]: 0.125 µg/mL
MIC [3]: 0.5 µg/mL
MIC [7]: 0.25 µg/mL
MIC [11]: 0.5 µg/mL
MIC [13]: 2 µg/mL
MIC [15]: 2 µg/mL
MIC [21]: 0.5 µg/mL
MIC [25]: 1 µg/mL
MIC [29]: 0.5 µg/mL
MIC [30]: 1 µg/mL
MIC [37]: 1 µg/mL
MIC [40]: 0.125 µg/mL
MIC [41]: 0.5 µg/mL
MIC [47]: 0.5 µg/mL
SMILES: OC1CCCc2nc(Nc3ccc(Cl)cc3)sc21 (configuration not stated)
MIC [1]: > 64 µg/mL
MIC [4]: > 64 µg/mL
fractional inhibitory concentration index (FICI) [5]: 0.53
Activity [6]: Non-Toxic
fold change (FC) [8]: 64
fold change (FC) [9]: 16
fractional inhibitory concentration index (FICI) [10]: 0.28
fold change (FC) [12]: 128
fold change (FC) [14]: 4
MIC [16]: > 64 µg/mL
fractional inhibitory concentration index (FICI) [17]: 0.16
MIC [18]: > 64 µg/mL
fractional inhibitory concentration index (FICI) [19]: 0.28
MIC [20]: > 64 µg/mL
Activity [22]: inactive
fold change (FC) [23]: 32
fractional inhibitory concentration index (FICI) [24]: 0.53
fold change (FC) [26]: 8
fold change (FC) [27]: 128
MIC [28]: > 64 µg/mL
fractional inhibitory concentration index (FICI) [31]: 0.53
MIC [32]: > 64 µg/mL
fractional inhibitory concentration index (FICI) [33]: 0.06
fractional inhibitory concentration index (FICI) [34]: 0.28
MIC [35]: > 64 µg/mL
fractional inhibitory concentration index (FICI) [36]: 1.03
MIC [38]: > 64 µg/mL
MIC [39]: > 64 µg/mL
Activity [42]: Active
MIC [43]: > 64 µg/mL
fractional inhibitory concentration index (FICI) [44]: 0.53
MIC [45]: > 64 µg/mL
fractional inhibitory concentration index (FICI) [46]: 0.53
fractional inhibitory concentration index (FICI) [48]: 0.53
MIC [49]: > 64 µg/mL
fractional inhibitory concentration index (FICI) [50]: 0.05
fractional inhibitory concentration index (FICI) [51]: 1.03
MIC [52]: > 128 µg/mL
